Values of other authors, collected in patent US20150177227A1, “CELLULAR AND ANIMAL MODELS FOR SCREENING THERAPEUTIC AGENTS FOR THE TREATMENT OF ALZHEIMER'S DISEASE” (priority 2012, published 2015).

How the values were obtained:
[1] = test system: plaque; details: in vivo
[2] = test system: Alzheimer's disease

Which results are given for “solanezumab: humanized antibody from Eli Lilly & Co. shown to clear plaque”?
plaque clearance [1]: clear plaque; benefit trend in phase II clinical trials [2]: neither antibody showed any trend
